Measured values: PubChem BioAssay (NCI)
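How tested: cells in 96-well plates exposed to compound for 48 hours at five concentrations. GI50 = concentration required for 50% inhibition of growth. TGI: concentration producing complete growth inhibition.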

Columns and labels:
Assay in all cases: DTP human tumour cell line panel, 48 h
ACHN renal = tested on: ACHN renal
DU-145 prostate = tested on: DU-145 prostate
MCF7 breast = tested on: MCF7 breast
HCT-116 colon = tested on: HCT-116 colon
SR leukemia = tested on: SR leukemia
HOP-92 NSCLC = tested on: HOP-92 NSCLC
SNB-19 CNS = tested on: SNB-19 CNS
SF-268 CNS = tested on: SF-268 CNS
MDA-MB-231 breast = tested on: MDA-MB-231 breast
OVCAR-3 ovarian = tested on: OVCAR-3 ovarian
HCC-2998 colon = tested on: HCC-2998 colon
OVCAR-5 ovarian = tested on: OVCAR-5 ovarian
UACC-62 melanoma = tested on: UACC-62 melanoma
MALME-3M melanoma = tested on: MALME-3M melanoma
HOP-62 NSCLC = tested on: HOP-62 NSCLC
BT-549 breast = tested on: BT-549 breast
M14 melanoma = tested on: M14 melanoma
IGROV1 ovarian = tested on: IGROV1 ovarian
HT29 colon = tested on: HT29 colon
COLO 205 colon = tested on: COLO 205 colon
RPMI-8226 leukemia = tested on: RPMI-8226 leukemia
U251 CNS = tested on: U251 CNS
NCI-H226 lung = tested on: NCI-H226 lung
SW-620 colon = tested on: SW-620 colon
786-0 renal = tested on: 786-0 renal
K-562 leukemia = tested on: K-562 leukemia
A549 NSCLC = tested on: A549 NSCLC
OVCAR-8 ovarian = tested on: OVCAR-8 ovarian
UO-31 renal = tested on: UO-31 renal

Compound `NC(=S)N/N=C\c1nccc2c(C(F)(F)C(F)(F)C(F)(F)F)cccc12` has a GI50 (ACHN renal) of 0.0582 µM, a TGI (ACHN renal) of 1.31 µM and a GI50 (DU-145 prostate) of 0.11 µM. For the same compound, the TGI (DU-145 prostate) was 2.92 µM, the GI50 (MCF7 breast) was 0.0515 µM and the TGI (MCF7 breast) was 7.54 µM. The GI50 (HCT-116 colon) was 0.0348 µM, the TGI (HCT-116 colon) was 1.45 µM and the GI50 (SR leukemia) was 0.0433 µM. It also gave a TGI (SR leukemia) greater than 32.4 µM, a GI50 (HOP-92 NSCLC) of 0.116 µM and a TGI (HOP-92 NSCLC) of 1.44 µM. For the same compound, the GI50 (SNB-19 CNS) was 0.196 µM, the TGI (SNB-19 CNS) was 5.21 µM and the GI50 (SF-268 CNS) was 0.0983 µM. It also gave a TGI (SF-268 CNS) of 4.22 µM, a GI50 (MDA-MB-231 breast) of 0.0561 µM and a TGI (MDA-MB-231 breast) of 3 µM. The GI50 (OVCAR-3 ovarian) was 0.0347 µM, the TGI (OVCAR-3 ovarian) was 2.22 µM and the GI50 (HCC-2998 colon) was 0.229 µM. For the same compound, the TGI (HCC-2998 colon) was 4.48 µM, the GI50 (OVCAR-5 ovarian) was 0.123 µM and the TGI (OVCAR-5 ovarian) was 16.8 µM. It also gave a GI50 (UACC-62 melanoma) of 0.171 µM, a TGI (UACC-62 melanoma) of 0.511 µM and a GI50 (MALME-3M melanoma) of 0.189 µM. It also gave a TGI (MALME-3M melanoma) of 1.43 µM, a GI50 (HOP-62 NSCLC) of 0.0752 µM and a TGI (HOP-62 NSCLC) of 1.25 µM. For the same compound, the GI50 (BT-549 breast) was 0.313 µM, the TGI (BT-549 breast) was 11.7 µM and the GI50 (M14 melanoma) was 0.0662 µM. It also gave a TGI (M14 melanoma) of 0.589 µM, a GI50 (IGROV1 ovarian) of 0.223 µM and a TGI (IGROV1 ovarian) of 1.93 µM. The GI50 (HT29 colon) was 0.137 µM, the TGI (HT29 colon) was 3.62 µM and the GI50 (COLO 205 colon) was 0.0327 µM. For the same compound, the TGI (COLO 205 colon) was 1.9 µM, the GI50 (RPMI-8226 leukemia) was 0.264 µM and the GI50 (U251 CNS) was 0.0569 µM. For the same compound, the TGI (U251 CNS) was 1.25 µM, the GI50 (NCI-H226 lung) was 0.162 µM and the TGI (NCI-H226 lung) was 1.12 µM. For the same compound, the GI50 (SW-620 colon) was 0.0538 µM, the TGI (SW-620 colon) was 24.3 µM and the GI50 (786-0 renal) was 0.26 µM. It also gave a TGI (786-0 renal) of 0.978 µM, a GI50 (K-562 leukemia) of 0.346 µM and a TGI (K-562 leukemia) greater than 100 µM. It also gave a GI50 (A549 NSCLC) of 0.0978 µM, a TGI (A549 NSCLC) of 1.1 µM and a GI50 (OVCAR-8 ovarian) of 0.0402 µM. It also gave a TGI (OVCAR-8 ovarian) of 1.59 µM and a GI50 (UO-31 renal) of 0.09 µM.
